pEC50, pIC50: −log10 of the molar value.

Two molecules from patent publication US20250179024A1, “AMYLOID AND ASSOCIATED PATHOLOGY MODULATORS AND METHODS THEREOF” (Jawaharlal Nehru Centre for Advanced Scientific Research, priority 2022, published 2025) can be followed below.

Type in all cases: biochemical
Assay [1] deals with T1, Aβ fibrils (Homo sapiens, UniProt P05067).
T1 construct: is a 42 amino acid proteolytic product from the amyloid precursor protein; purchased Invitrogen
Put plainly: Dot blot assay of Aβ fibrillar aggregation inhibition (OC antibody). The note with it: Aβ 10 μM; for inhibition of the formation of Aβ fibrils: NMIs 20 μM, PBS pH 7.4, 37° C., 48 h. As to the method:
Aggregation modulation by toxic Aβ aggregates were assessed and were quantified by dot blot assay. Aβ peptide (10 μM) was dissolved in phosphate buffered saline (PBS, 10 mM, pH 7.4), incubated alone and with NMIs (20 μM) at 37° C. for 48 h. For concentration dependent inhibition, 10 μM Aβ peptide was incubated with 1, 2, 5, 10 and 20 μM of NMIs and incubated. Samples for oligomer inhibition studies were prepared by incubating Aβ alone and with NMIs at 4° C. for 24 and subjected to dot blot analysis. For dissolution studies, Aβ peptide alone was incubated in PBS for 48 h to prepare fibrils and then incubated with NMIs further for 48 h. For dot blot experiment, 5 μL of sample was blotted on activated PVDF (polyvinylidene fluoride) membrane in triplicates and air dried. The membrane was blocked with skimmed milk powder for 1 h at room temperature. The blot paper was washed with tris-buffered saline with 0.01% Tween 20 (TBST) three times for 5 min. Blot paper was treated with fibril specific OC primary antibody (Rabbit, 1:1000 dilution) overnight at 4° C. For oligomers blot A11 anti-oligomer antibody (Rabbit 1:1000) was used. Blot was washed thrice with TBST and treated with HRP-conjugated antirabbit secondary antibody (1:5000 dilutions) for 1 h at room temperature. The bolt was washed thrice for 5 min with TBST and developed with ECL reagent (Biorad) and imaged with ChemiDoc BioRad gel documentation system in autoexposure mode. Blots were analyzed and quantified by ImageJ software. The ability of the NMIs, the compounds of the present disclosure M1-M4 to inhibit Aβ aggregation and dissolve the preformed fibrillar aggregates was evaluated by dot blot assay as explained in Example 2 above. Aβ (10 μM) was incubated alone and with NMIs (20 μM) in phosphate buffer saline (PBS, 10 mM and pH 7.4) at 37° C. for 48 h to form Aβ fibrillar aggregates. The samples were blotted and probed with fibril-selective OC antibody (rabbit anti-human amyloid fibrils). […] M3 was further assessed for inhibitory effect at lower concentrations. […] It has been observed that the oligomers are a highly toxic species compared to Aβ fibrillar aggregates. The ability of NMIs (M3) to inhibit the formation of Aβ oligomers was assessed by dot blot assay. Aβ peptide (10 μM) was incubated with NMIs at 4° C. for 24 h followed by probing with A11 oligomer-specific antibody. […] Native PAGE and western blot analysis was carried out to understand the size distribution of Aβ aggregated species. […] In order to analyse the higher order aggregates not permeable in the gel matrix and the morphological characteristics, Aβ samples were subjected to atomic force microscopy (AFM) imaging.

Assay [2] addresses T2, preformed Aβ fibrillar aggregates (Homo sapiens, UniProt P05067).
T2 construct: is a 42 amino acid proteolytic product from the amyloid precursor protein; purchased Invitrogen
The assay is described as follows: Dot blot assay of dissolution of preformed Aβ fibrillar aggregates. The settings on record: Aβ aggregates 10 μM; for dissolution efficiency: NMIs 20 μM, 48 h. The procedure:
Aggregation modulation by toxic Aβ aggregates were assessed and were quantified by dot blot assay. Aβ peptide (10 μM) was dissolved in phosphate buffered saline (PBS, 10 mM, pH 7.4), incubated alone and with NMIs (20 μM) at 37° C. for 48 h. For concentration dependent inhibition, 10 μM Aβ peptide was incubated with 1, 2, 5, 10 and 20 μM of NMIs and incubated. Samples for oligomer inhibition studies were prepared by incubating Aβ alone and with NMIs at 4° C. for 24 and subjected to dot blot analysis. For dissolution studies, Aβ peptide alone was incubated in PBS for 48 h to prepare fibrils and then incubated with NMIs further for 48 h. For dot blot experiment, 5 μL of sample was blotted on activated PVDF (polyvinylidene fluoride) membrane in triplicates and air dried. The membrane was blocked with skimmed milk powder for 1 h at room temperature. The blot paper was washed with tris-buffered saline with 0.01% Tween 20 (TBST) three times for 5 min. Blot paper was treated with fibril specific OC primary antibody (Rabbit, 1:1000 dilution) overnight at 4° C. For oligomers blot A11 anti-oligomer antibody (Rabbit 1:1000) was used. Blot was washed thrice with TBST and treated with HRP-conjugated antirabbit secondary antibody (1:5000 dilutions) for 1 h at room temperature. The bolt was washed thrice for 5 min with TBST and developed with ECL reagent (Biorad) and imaged with ChemiDoc BioRad gel documentation system in autoexposure mode. Blots were analyzed and quantified by ImageJ software. The fibrillar aggregates were formed by incubating Aβ peptide (10 μM) in PBS (pH 7.4) at 37° C. for 48 h. The aggregate samples were treated with NMIs (20 μM) for 48 h followed by dot blot analysis. […] These studies confirmed that M3 as the potential candidate to dissolve Aβ fibrillar aggregates to possibly nontoxic species.

In assay [3] the target is T3, Aβ42 (Homo sapiens, UniProt P05067).
T3 construct: is a 42 amino acid proteolytic product from the amyloid precursor protein; purchased Invitrogen
Put plainly: Native PAGE and western blot of Aβ aggregated species. The note with it: NMIs 20 μM; for size distribution of Aβ aggregated species, aggregation inhibition: Aβ 10 μM, FIGS. 1B and 2B; for LMW and HMW Aβ aggregates, dissolution samples: Aβ aggregates 10 μM, FIG. 4B. As to the method:
The samples were prepared by incubating Aβ42 with specific concentration of NMI compounds of present disclosure and metal ions for 48 h and then subjected to 6% native polyacrylamide gel electrophoresis (Native-PAGE) in tris-glycine buffer. The lower molecular weight aggregates permeabilized through the gel and resolved in the gel. Higher molecular aggregates stuck in the upper part of wells and potentially carried in gel. Then the protein was transferred to PVDF membrane for 4 h at cold condition maintained using ice cold transfer buffer and immersing the transfer apparatus in ice. Then the blots were continued similar to dot blots. […] It has been observed that the oligomers are a highly toxic species compared to Aβ fibrillar aggregates. The ability of NMIs (M3) to inhibit the formation of Aβ oligomers was assessed by dot blot assay. Aβ peptide (10 μM) was incubated with NMIs at 4° C. for 24 h followed by probing with A11 oligomer-specific antibody. […] Native PAGE and western blot analysis was carried out to understand the size distribution of Aβ aggregated species. […] In order to analyse the higher order aggregates not permeable in the gel matrix and the morphological characteristics, Aβ samples were subjected to atomic force microscopy (AFM) imaging.
(In western blotting, separated proteins are transferred to a membrane and probed.)

T1 sequence (P05067 672-713 limits assumed): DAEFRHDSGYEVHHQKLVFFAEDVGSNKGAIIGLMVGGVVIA
T3 sequence (P05067 672-713 limits assumed): as above
T2 sequence (P05067 672-713 limits assumed): as above

For the molecule `CN(C)c1ccc2c3c(cccc13)C(=O)N(CCc1ccc(O)c(O)c1)C2=O` [M1, 2-(3,4-dihydroxyphenethyl)-6-(dimethylamino)-1H-benzo[de]isoquinoline-1,3(2H)-dione], the “inhibition of the formation of Aβ fibrils” value in assay [1] is given as around 95%. Moreover, the dissolution efficiency in assay [2] was around 44%. In addition, in assay [3], the “size distribution of Aβ aggregated species, aggregation inhibition” value is on record as “reduction of different Aβ species”; the “LMW and HMW Aβ aggregates, dissolution samples” value is “effectively inhibited the formation of LMW and HMW Aβ aggregates”.
One may read the pIC50 as the negative decadic logarithm of the IC50, by convention in mol/L. A high value points to a small IC50. As usually defined, the pEC50 is the EC50 on a negative log10 scale, so that one unit is a factor of ten. With `O=C1c2cccc3c(N(Cc4ccccn4)Cc4ccccn4)ccc(c23)C(=O)N1CCc1ccc(O)c(O)c1` [M3, 6-(bis(pyridin-2-ylmethyl)amino)-2-(3,4-dihydroxyphenethyl)-1H-benzo[de]isoquinoline-1,3(2H)-dione], the pIC50 in assay [1] is 6.00. Moreover, the “inhibition of Aβ aggregation” value came out at 37% in assay [1] (0.1 molar ratio); 42% in assay [1] (0.2 molar ratio); 55% in assay [1] (0.5 molar ratio); 74% in assay [1] (1 molar ratio); 90% in assay [1] (2 molar ratio). For the same molecule, in assay [1], the “inhibition of the formation of Aβ fibrils” value is 94%. This molecule had a pEC50 in assay [2] of 5.10. In addition, the dissolution in assay [2] (0.1 molar ratio) turned out to be 25%; in assay [2] (0.2 molar ratio), 46%; in assay [2] (0.5 molar ratio) it was 48%; in assay [2] (1 molar ratio), 50%; in assay [2] (2 molar ratio) it was 59%. For the same molecule, in assay [2], the dissolution efficiency came out at 52%. In addition, in assay [3], the “size distribution of Aβ aggregated species, aggregation inhibition” value is reported as “reduction of different Aβ species”. Besides, the “LMW and HMW Aβ aggregates, dissolution samples” value in assay [3] was “effectively inhibited the formation of LMW and HMW Aβ aggregates”.
